According to patent US20220177508A1, “C10-Cyclic Substituted 13-Membered Macrolides and Uses Thereof” (Zikani Therapeutics, Inc., priority 2018, published 2022):
≈ marks a conversion by molar mass, not a printed value.

How the values were obtained:
Assay type in all cases: cell-based
E. coli MP-4 = experiment: Broth dilution MIC determination (CLSI), E. coli MP-4; conditions: Escherichia coli, MP4; strain MP-4, broth dilution; read-out: MIC E. coli MP-4
K. pneumoniae MP-546 = experiment: Broth dilution MIC determination (CLSI), K. pneumoniae MP-546; conditions: Klebsiella pneumoniae, MP546; strain MP-546, broth dilution
A. baumannii MP-15 = experiment: Broth dilution MIC determination (CLSI), A. baumannii MP-15; conditions: Acinetobacter baumannii, MP15; strain MP-15, broth dilution; read-out: MIC A. baumanii MP-15
P. aeruginosa MP-3 = experiment: Broth dilution MIC determination (CLSI), P. aeruginosa MP-3; conditions: Pseudomonas aeruginosa, MP3; strain MP-3, broth dilution
S. aureus MP-12 = experiment: Broth dilution MIC determination (CLSI), S. aureus MP-12; conditions: Staphylococcus aureus, MP12; strain MP-12, broth dilution
K. pneumoniae MP-648 = experiment: Broth dilution MIC determination (CLSI), K. pneumoniae MP-648; conditions: Klebsiella pneumoniae, MP648; strain MP-648, broth dilution

Compound | MIC (E. coli MP-4) | MIC (K. pneumoniae MP-546) | MIC (A. baumannii MP-15) | MIC (P. aeruginosa MP-3) | MIC (S. aureus MP-12) | MIC (K. pneumoniae MP-648)
CCCN1C[C@H](C)C[C@@](C)(OC)[C@H](O[C@@H]2O[C@H](C)C[C@H](N(C)C)[C@H]2O)[C@@H](C)C(=O)C(C)(C)C(=O)OC[C@H]1[C@H]1C[C@H](N(C)CC(C)C)C1 [Compound 60, (3R,6R,8R,9R,10R)-9-(((2S,3R,4S,6R)-4-(dimethylamino)-3-hydroxy-6-methyltetrahydro-2H-pyran-2-yl)oxy)-3-((1r,3R)-3-(isobutyl(methyl)amino)cyclobutyl)-8-methoxy-6,8,10,12,12-pentamethyl-4-propyl-1-oxa-4-azacyclotridecane-11,13-dione] | < 4 µg/mL | 4 to 32 µg/mL (≈ 5.99 to 47.9 µM) | > 32 µg/mL | > 32 µg/mL | 4 to 32 µg/mL (≈ 5.99 to 47.9 µM) | 4 to 32 µg/mL (≈ 5.99 to 47.9 µM)
CO[C@]1(C)C[C@@H](C)CN(C)[C@H](C2CN(C(=O)CCCN(C)CC3CC3)C2)COC(=O)C(C)(C)C(=O)[C@H](C)[C@H]1O[C@@H]1O[C@H](C)C[C@H](N(C)C)[C@H]1O [Compound 61, (3R,6R,8R,9R,10R)-3-(1-(4-((cyclopropylmethyl)(methyl)amino)butanoyl)azetidin-3-yl)-9-(((2S,3R,4S,6R)-4-(dimethylamino)-3-hydroxy-6-methyltetrahydro-2H-pyran-2-yl)oxy)-8-methoxy-4,6,8,10,12,12-hexamethyl-1-oxa-4-azacyclotridecane-11,13-dione] | 4 to 32 µg/mL (≈ 5.64 to 45.1 µM) | 4 to 32 µg/mL (≈ 5.64 to 45.1 µM) | > 32 µg/mL | > 32 µg/mL | > 32 µg/mL | > 32 µg/mL
CO[C@]1(C)C[C@@H](C)CN(C)[C@@H](C2CCN(CC3CCC3)CC2)COC(=O)C(C)(C)C(=O)[C@H](C)[C@H]1O[C@@H]1O[C@H](C)C[C@H](N(C)C)[C@H]1O [Compound 69, (3S,6R,8R,9R,10R)-3-(1-(cyclobutylmethyl)piperidin-4-yl)-9-(((2S,3R,4S,6R)-4-(dimethylamino)-3-hydroxy-6-methyltetrahydro-2H-pyran-2-yl)oxy)-8-methoxy-4,6,8,10,12,12-hexamethyl-1-oxa-4-azacyclotridecane-11,13-dione] | < 4 µg/mL | < 4 µg/mL | > 32 µg/mL | > 32 µg/mL | 4 to 32 µg/mL (≈ 6.14 to 49.1 µM) | 4 to 32 µg/mL (≈ 6.14 to 49.1 µM)
CCN(C)[C@H]1C[C@H]([C@@H]2COC(=O)C(C)(C)C(=O)[C@H](C)[C@@H](O[C@@H]3O[C@H](C)C[C@H](N(C)C)[C@H]3O)[C@](C)(OC)C[C@@H](C)CN2C)C1 [Compound 71, (3R,6R,8R,9R,10R)-9-(((2S,3R,4S,6R)-4-(dimethylamino)-3-hydroxy-6-methyltetrahydro-2H-pyran-2-yl)oxy)-3-((1r,3R)-3-(ethyl(methyl)amino)cyclobutyl)-8-methoxy-4,6,8,10,12,12-hexamethyl-1-oxa-4-azacyclotridecane-11,13-dione] | 4 to 32 µg/mL (≈ 6.54 to 52.3 µM) | < 4 µg/mL | > 32 µg/mL | > 32 µg/mL | 4 to 32 µg/mL (≈ 6.54 to 52.3 µM) | < 4 µg/mL
CO[C@]1(C)C[C@@H](C)CN(C)[C@@H](C2CCN(C[C@H]3COC(C)(C)O3)CC2)COC(=O)C(C)(C)C(=O)[C@H](C)[C@H]1O[C@@H]1O[C@H](C)C[C@H](N(C)C)[C@H]1O [Compound 86, (3S,6R,8R,9R,10R)-3-(1-(((S)-2,2-dimethyl-1,3-dioxolan-4-yl)methyl)piperidin-4-yl)-9-(((2S,3R,4S,6R)-4-(dimethylamino)-3-hydroxy-6-methyltetrahydro-2H-pyran-2-yl)oxy)-8-methoxy-4,6,8,10,12,12-hexamethyl-1-oxa-4-azacyclotridecane-11,13-dione] | < 4 µg/mL | < 4 µg/mL | > 32 µg/mL | > 32 µg/mL | 4 to 32 µg/mL (≈ 5.73 to 45.8 µM) | 4 to 32 µg/mL (≈ 5.73 to 45.8 µM)
CCCN1C[C@H](C)C[C@@](C)(OC)[C@H](O[C@@H]2O[C@H](C)C[C@H](N(C)C)[C@H]2O)[C@@H](C)C(=O)C(C)(C)C(=O)OC[C@H]1[C@H]1C[C@H](N(C)CC)C1 [Compound 94, (3R,6R,8R,9R,10R)-9-(((2S,3R,4S,6R)-4-(dimethylamino)-3-hydroxy-6-methyltetrahydro-2H-pyran-2-yl)oxy)-3-((1r,3R)-3-(ethyl(methyl)amino)cyclobutyl)-8-methoxy-6,8,10,12,12-pentamethyl-4-propyl-1-oxa-4-azacyclotridecane-11,13-dione] | < 4 µg/mL | < 4 µg/mL | > 32 µg/mL | > 32 µg/mL | 4 to 32 µg/mL (≈ 6.25 to 50 µM) | 4 to 32 µg/mL (≈ 6.25 to 50 µM)
CCCN1C[C@H](C)C[C@@](C)(OC)[C@H](O[C@@H]2O[C@H](C)C[C@H](N(C)C)[C@H]2O)[C@@H](C)C(=O)C(C)(C)C(=O)OC[C@H]1[C@H]1C[C@H](N(C)CC2CC2)C1 [Compound 95, (3R,6R,8R,9R,10R)-3-((1r,3R)-3-((cyclopropylmethyl)(methyl)amino)cyclobutyl)-9-(((2S,3R,4S,6R)-4-(dimethylamino)-3-hydroxy-6-methyltetrahydro-2H-pyran-2-yl)oxy)-8-methoxy-6,8,10,12,12-pentamethyl-4-propyl-1-oxa-4-azacyclotridecane-11,13-dione] | < 4 µg/mL | < 4 µg/mL | > 32 µg/mL | > 32 µg/mL | 4 to 32 µg/mL (≈ 6.01 to 48.1 µM) | 4 to 32 µg/mL (≈ 6.01 to 48.1 µM)
CO[C@]1(C)C[C@@H](C)CN(C)[C@H](C2CN(CC3CCCC3)C2)COC(=O)C(C)(C)C(=O)[C@H](C)[C@H]1O[C@@H]1O[C@H](C)C[C@H](N(C)C)[C@H]1O [Compound 103, (3R,6R,8R,9R,10R)-3-(1-(cyclopentylmethyl)azetidin-3-yl)-9-(((2S,3R,4S,6R)-4-(dimethylamino)-3-hydroxy-6-methyltetrahydro-2H-pyran-2-yl)oxy)-8-methoxy-4,6,8,10,12,12-hexamethyl-1-oxa-4-azacyclotridecane-11,13-dione] | < 4 µg/mL | < 4 µg/mL | 4 to 32 µg/mL (≈ 6.27 to 50.2 µM) | > 32 µg/mL | 4 to 32 µg/mL (≈ 6.27 to 50.2 µM) | 4 to 32 µg/mL (≈ 6.27 to 50.2 µM)
CO[C@]1(C)C[C@@H](C)CN(C)[C@@H](C2CCN(CC3CC3)CC2)COC(=O)C(C)(C)C(=O)[C@H](C)[C@H]1O[C@@H]1O[C@H](C)C[C@H](N(C)C)[C@H]1O [Compound 108, (3S,6R,8R,9R,10R)-3-(1-(cyclopropylmethyl)piperidin-4-yl)-9-(((2S,3R,4S,6R)-4-(dimethylamino)-3-hydroxy-6-methyltetrahydro-2H-pyran-2-yl)oxy)-8-methoxy-4,6,8,10,12,12-hexamethyl-1-oxa-4-azacyclotridecane-11,13-dione] | < 4 µg/mL | < 4 µg/mL | > 32 µg/mL | > 32 µg/mL | 4 to 32 µg/mL (≈ 6.27 to 50.2 µM) | < 4 µg/mL
CO[C@]1(C)C[C@@H](C)CN(C)[C@H](C2CN(C(=O)[C@@H]3CCN(C)C3)C2)COC(=O)C(C)(C)C(=O)[C@H](C)[C@H]1O[C@@H]1O[C@H](C)C[C@H](N(C)C)[C@H]1O [Compound 111, (3R,6R,8R,9R,10R)-9-(((2S,3R,4S,6R)-4-(dimethylamino)-3-hydroxy-6-methyltetrahydro-2H-pyran-2-yl)oxy)-8-methoxy-4,6,8,10,12,12-hexamethyl-3-(1-((R)-1-methylpyrrolidine-3-carbonyl)azetidin-3-yl)-1-oxa-4-azacyclotridecane-11,13-dione] | 4 to 32 µg/mL (≈ 6 to 48 µM) | 4 to 32 µg/mL (≈ 6 to 48 µM) | > 32 µg/mL | > 32 µg/mL | 4 to 32 µg/mL (≈ 6 to 48 µM) | 4 to 32 µg/mL (≈ 6 to 48 µM)
CO[C@]1(C)C[C@@H](C)CN(C)[C@H](C2CN(CC(C)(C)C)C2)COC(=O)C(C)(C)C(=O)[C@H](C)[C@H]1O[C@@H]1O[C@H](C)C[C@H](N(C)C)[C@H]1O [Compound 114, (3R,6R,8R,9R,10R)-9-(((2S,3R,4S,6R)-4-(dimethylamino)-3-hydroxy-6-methyltetrahydro-2H-pyran-2-yl)oxy)-8-methoxy-4,6,8,10,12,12-hexamethyl-3-(1-neopentylazetidin-3-yl)-1-oxa-4-azacyclotridecane-11,13-dione] | < 4 µg/mL | < 4 µg/mL | > 32 µg/mL | > 32 µg/mL | 4 to 32 µg/mL (≈ 6.39 to 51.1 µM) | 4 to 32 µg/mL (≈ 6.39 to 51.1 µM)
CO[C@]1(C)C[C@@H](C)CN(C)[C@H](C2CN(Cc3ccccn3)C2)COC(=O)C(C)(C)C(=O)[C@H](C)[C@H]1O[C@@H]1O[C@H](C)C[C@H](N(C)C)[C@H]1O [Compound 115, (3R,6R,8R,9R,10R)-9-(((2S,3R,4S,6R)-4-(dimethylamino)-3-hydroxy-6-methyltetrahydro-2H-pyran-2-yl)oxy)-8-methoxy-4,6,8,10,12,12-hexamethyl-3-(1-(pyridin-2-ylmethyl)azetidin-3-yl)-1-oxa-4-azacyclotridecane-11,13-dione] | < 4 µg/mL | 4 to 32 µg/mL (≈ 6.18 to 49.5 µM) | > 32 µg/mL | > 32 µg/mL | 4 to 32 µg/mL (≈ 6.18 to 49.5 µM) | 4 to 32 µg/mL (≈ 6.18 to 49.5 µM)
CO[C@]1(C)C[C@@H](C)CN(C)[C@H](C2CN(Cc3cccnc3)C2)COC(=O)C(C)(C)C(=O)[C@H](C)[C@H]1O[C@@H]1O[C@H](C)C[C@H](N(C)C)[C@H]1O [Compound 119, (3R,6R,8R,9R,10R)-9-(((2S,3R,4S,6R)-4-(dimethylamino)-3-hydroxy-6-methyltetrahydro-2H-pyran-2-yl)oxy)-8-methoxy-4,6,8,10,12,12-hexamethyl-3-(1-(pyridin-3-ylmethyl)azetidin-3-yl)-1-oxa-4-azacyclotridecane-11,13-dione] | < 4 µg/mL | 4 to 32 µg/mL (≈ 6.18 to 49.5 µM) | > 32 µg/mL | > 32 µg/mL | 4 to 32 µg/mL (≈ 6.18 to 49.5 µM) | 4 to 32 µg/mL (≈ 6.18 to 49.5 µM)
